Test results as given in patent US9783536B2, “Nitrogen-containing heterocyclic compound or salt thereof” (FUJIFILM Corporation, priority 2013, dated 2017).

What was measured:
human PI3Kα protein = molecular target: T1, human PI3Kα protein (Homo sapiens, UniProt P42336); assay: PI3Kα enzyme assay (ADP-Glo); format: biochemical; conditions: read-out: PI3Kα enzyme inhibitory activity
T1 construct: purchased Carna Biosciences, Inc; host or cells: baculovirus expression system
How it was run: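 Biotinylated human PI3Kα (baculovirus-expressed, 4.5 nmol/L) pre-incubated 15 min with compound in Tris-HCl pH 7.5, MgCl2, BSA; reaction 60 min at 25° C with 50 μmol/L PIP2 and 100 μmol/L ATP final. ADP quantified by ADP-Glo luminescence; IC50 calculated.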

[1] = molecular target: T2, GST fusion human ERK2 protein (Homo sapiens, UniProt P28482); assay: ERK2 enzyme assay (2); format: biochemical; conditions: ERK2 enzyme assay (2); read-out: ERK2 enzyme inhibitory activity (2)
T2 construct: purchased Carna Biosciences, Inc; host or cells: E. coli expression system
How it was run: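 IC50 values come from mobility-shift measurement of phosphorylated versus unphosphorylated 5-FAM peptide substrate after EDTA quench. Beforehand, compound and 1.25 nmol/L E. coli-expressed GST–human ERK2 stood 15 min at room temperature (pH 7.5), then 1 mmol/L ATP and 4.25 μmol/L substrate (final) were added for 120 min at 25 °C.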

T1 sequence (P42336 whole entry): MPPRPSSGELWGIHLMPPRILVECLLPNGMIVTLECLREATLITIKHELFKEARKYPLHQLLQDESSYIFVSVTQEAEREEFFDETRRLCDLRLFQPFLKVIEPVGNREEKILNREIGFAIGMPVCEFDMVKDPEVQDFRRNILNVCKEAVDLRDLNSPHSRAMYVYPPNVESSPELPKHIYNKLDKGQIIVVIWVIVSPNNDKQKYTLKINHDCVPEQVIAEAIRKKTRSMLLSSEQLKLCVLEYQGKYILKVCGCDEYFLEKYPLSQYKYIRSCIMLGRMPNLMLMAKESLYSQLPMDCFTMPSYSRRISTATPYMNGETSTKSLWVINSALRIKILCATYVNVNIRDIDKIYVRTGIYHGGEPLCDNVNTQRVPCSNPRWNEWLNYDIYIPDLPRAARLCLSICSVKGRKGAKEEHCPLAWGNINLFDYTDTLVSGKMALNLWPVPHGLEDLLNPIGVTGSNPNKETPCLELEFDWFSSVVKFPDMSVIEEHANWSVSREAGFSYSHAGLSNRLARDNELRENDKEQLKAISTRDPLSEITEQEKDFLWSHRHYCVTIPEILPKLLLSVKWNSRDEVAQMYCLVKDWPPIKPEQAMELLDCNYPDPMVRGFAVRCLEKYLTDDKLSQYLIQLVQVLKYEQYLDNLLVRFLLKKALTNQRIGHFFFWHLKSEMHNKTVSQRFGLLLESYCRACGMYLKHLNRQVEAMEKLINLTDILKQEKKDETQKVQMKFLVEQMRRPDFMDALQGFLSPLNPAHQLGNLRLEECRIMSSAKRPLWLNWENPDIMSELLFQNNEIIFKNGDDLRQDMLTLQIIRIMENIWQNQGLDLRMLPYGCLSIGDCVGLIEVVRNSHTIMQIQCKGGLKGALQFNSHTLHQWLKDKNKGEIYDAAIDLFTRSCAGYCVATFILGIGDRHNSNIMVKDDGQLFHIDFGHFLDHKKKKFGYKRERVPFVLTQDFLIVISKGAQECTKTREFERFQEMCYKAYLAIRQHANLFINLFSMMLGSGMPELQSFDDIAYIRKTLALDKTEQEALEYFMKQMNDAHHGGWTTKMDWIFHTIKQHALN
T1 sequence (P27986 whole entry partner): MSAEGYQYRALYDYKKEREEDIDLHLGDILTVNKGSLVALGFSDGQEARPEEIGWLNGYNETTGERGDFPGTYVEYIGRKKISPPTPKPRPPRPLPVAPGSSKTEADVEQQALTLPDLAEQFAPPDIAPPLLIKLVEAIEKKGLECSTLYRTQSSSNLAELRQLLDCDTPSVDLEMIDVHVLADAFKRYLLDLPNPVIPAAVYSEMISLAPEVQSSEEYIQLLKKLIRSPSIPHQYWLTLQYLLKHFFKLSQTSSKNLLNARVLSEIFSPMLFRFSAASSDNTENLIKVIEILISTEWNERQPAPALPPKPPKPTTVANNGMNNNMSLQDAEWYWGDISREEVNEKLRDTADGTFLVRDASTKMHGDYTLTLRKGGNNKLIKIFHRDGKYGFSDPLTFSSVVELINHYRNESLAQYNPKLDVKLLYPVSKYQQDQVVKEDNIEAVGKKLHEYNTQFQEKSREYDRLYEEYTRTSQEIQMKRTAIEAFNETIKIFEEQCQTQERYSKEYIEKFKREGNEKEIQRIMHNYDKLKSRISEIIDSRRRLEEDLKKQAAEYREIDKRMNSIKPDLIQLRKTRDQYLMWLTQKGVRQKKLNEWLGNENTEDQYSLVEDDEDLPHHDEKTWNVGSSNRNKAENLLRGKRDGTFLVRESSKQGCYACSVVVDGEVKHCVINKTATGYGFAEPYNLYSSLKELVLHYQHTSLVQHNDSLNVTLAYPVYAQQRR
T2 sequence (P28482 whole entry, the tested form may be a part): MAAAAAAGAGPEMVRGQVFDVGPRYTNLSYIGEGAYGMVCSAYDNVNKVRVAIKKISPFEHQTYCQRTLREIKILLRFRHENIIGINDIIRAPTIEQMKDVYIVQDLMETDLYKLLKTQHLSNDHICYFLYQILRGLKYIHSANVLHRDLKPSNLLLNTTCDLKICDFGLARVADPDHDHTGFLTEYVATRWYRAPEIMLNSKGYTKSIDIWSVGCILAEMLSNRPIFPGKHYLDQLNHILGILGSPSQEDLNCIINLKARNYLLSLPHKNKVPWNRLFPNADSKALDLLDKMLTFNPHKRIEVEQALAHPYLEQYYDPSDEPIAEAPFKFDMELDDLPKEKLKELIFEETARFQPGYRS

IC50 (human PI3Kα protein) | IC50 [1] | SMILES
< 1000 nM | < 1000 nM | CC(C)c1cnnc(Nc2ccc3ncc(-c4cn(C)nc4COc4cccc(OCCN(C)C)c4)cc3n2)c1 [Example 0809, 7-(3-((3-(2-(dimethylamino)ethoxy)phenoxy)methyl)-1-methyl-1H-pyrazol-4-yl)-N-(5-isopropylpyridazin-3-yl)-1,5-naphthyridine-2-amine]
< 1000 nM | < 1000 nM | CC(C)c1cnnc(Nc2ccc3ncc(-c4cn(C)nc4COc4cccc(OCC(=O)N(C)C)c4)cc3n2)c1 [Example 0810]
< 1000 nM | < 1000 nM | CC(C)c1cnnc(Nc2ccc3ncc(-c4cn(C)nc4Oc4ccccc4)cc3n2)c1 [Example 0820]
< 1000 nM | < 1000 nM | CC(C)c1cnnc(Nc2ccc3ncc(-c4cn(C)nc4COC4CN(C(=O)OC(C)(C)C)C4)cc3n2)c1 [Example 0821, tert-Butyl 3-((4-(6-((5-isopropylpyridazin-3-yl)amino)-1,5-naphthyridin-3-yl)-1-methyl-1H-pyrazol-3-yl)methoxy)azetidine-1-carboxylate]
< 1000 nM | < 1000 nM | CC(C)c1cnnc(Nc2ccc3ncc(-c4cn(C)nc4COC4CNC4)cc3n2)c1 [Example 0822, 7-(3-((Azetidin-3-yloxy)methyl)-1-methyl-1H-pyrazol-4-yl)-N-(5-isopropylpyridazin-3-yl)-1,5-naphthyridine-2-amine]
< 1000 nM | < 1000 nM | CC(C)c1cnnc(Nc2ccc3ncc(-c4cn(C)nc4COC4CN(C)C4)cc3n2)c1 [Example 0823, N-(5-isopropylpyridazin-3-yl)-7-(1-methyl-3-(((1-methylazetidin-3-yl)oxy)methyl)-1H-pyrazol-4-yl)-1,5-naphthyridine-2-amine]
< 1000 nM | < 1000 nM | CC(C)c1cnnc(Nc2ccc3ncc(-c4cn(C)nc4Cc4cccnc4)cc3n2)c1 [Example 0824, N-(5-isopropylpyridazin-3-yl)-7-(1-methyl-3-(pyridin-3-ylmethyl)-1H-pyrazol-4-yl)-1,5-naphthyridine-2-amine]
< 1000 nM | < 1000 nM | CC(C)c1cnnc(Nc2ccc3ncc(-c4cn(C)nc4Cc4ccccc4)cc3n2)c1 [Example 0828]
< 1000 nM | < 1000 nM | CC(C)c1cnnc(Nc2ccc3ncc(-c4cn(C)nc4Nc4ccccc4)cc3n2)c1 [Example 0829]
< 1000 nM | < 1000 nM | CC(C)c1cnnc(Nc2ccc3ncc(-c4cn(C)nc4NCc4cccnc4)cc3n2)c1 [Example 0833]
< 1000 nM | < 1000 nM | CC(C)c1cnnc(Nc2ccc3ncc(-c4cn(C)nc4NCc4ccccn4)cc3n2)c1 [Example 0834]
< 1000 nM | < 1000 nM | CC(C)c1cnnc(Nc2ccc3ncc(-c4cn(C)nc4NCc4ccncc4)cc3n2)c1 [Example 0835]
< 1000 nM | < 1000 nM | CC(C)c1cnnc(Nc2ccc3ncc(-c4cn(C)nc4-c4ccccn4)cc3n2)c1 [Example 0838, N-(5-isopropylpyridazin-3-yl)-7-(1-methyl-3-(pyridin-2-yl)-1H-pyrazol-4-yl)-1,5-naphthyridine-2-amine]

Second part, the molecule before the results:

SMILES | IC50 (human PI3Kα protein) | IC50 [1]
CCOC(CN1CCOCC1)Cn1cc(-c2cnc3ccc(Nc4cc(C(C)C)cnn4)nc3c2)cn1 (stereo not drawn) [Example 0811] | < 1000 nM | < 1000 nM
COC(CN1CC(OC(F)F)C1)Cn1cc(-c2cnc3ccc(Nc4cc(C(C)C)cnn4)nc3c2)cn1 (stereo not drawn) [Example 0813, 7-(1-(3-(3-(Difluoromethoxy)azetidin-1-yl)-2-methoxypropyl)-1H-pyrazol-4-yl)-N-(5-isopropylpyridazin-3-yl)-1,5-naphthyridine-2-amine] | < 1000 nM | < 1000 nM
COC(CN1CC(F)(F)C1)Cn1cc(-c2cnc3ccc(Nc4cc(C(C)C)cnn4)nc3c2)cn1 (stereo not drawn) [Example 0814, 7-(1-(3-(3,3-difluoroazetidin-1-yl)-2-methoxypropyl)-1H-pyrazol-4-yl)-N-(5-isopropylpyridazin-3-yl)-1,5-naphthyridine-2-amine] | < 1000 nM | < 1000 nM
COC(CN1CC(F)C1)Cn1cc(-c2cnc3ccc(Nc4cc(C(C)C)cnn4)nc3c2)cn1 (stereo not drawn) [Example 0815, 7-(1-(3-(3-Fluoroazetidin-1-yl)-2-methoxypropyl)-1H-pyrazol-4-yl)-N-(5-isopropylpyridazin-3-yl)-1,5-naphthyridine-2-amine] | < 1000 nM | < 1000 nM
CCC(CC)c1cnnc(Nc2ccc3ncc(-c4cnn(CCOC5CNC5)c4)cc3n2)c1 [Example 0816] | < 1000 nM | < 1000 nM
c1nnc(Nc2ccc3ncc(-c4cnn(CCOC5CNC5)c4)cc3n2)cc1CC1CCCCC1 [Example 0817] | < 1000 nM | < 1000 nM
CCC(CC)c1cnnc(Nc2ccc3ncc(-c4cnn(CCOC5CN(C(C)C)C5)c4)cc3n2)c1 [Example 0818] | < 1000 nM | < 1000 nM
CC(C)N1CC(OCCn2cc(-c3cnc4ccc(Nc5cc(CC6CCCCC6)cnn5)nc4c3)cn2)C1 [Example 0819] | < 1000 nM | < 1000 nM
CC(C)c1cnnc(Nc2ccc3ncc(-c4cn(C)nc4NC4CNC4)cc3n2)c1 [Example 0826] | < 1000 nM | < 1000 nM
CC(C)c1cnnc(Nc2ccc3ncc(-c4cn(C)nc4NC4CN(C)C4)cc3n2)c1 [Example 0827, N-(5-isopropylpyridazin-3-yl)-7-(1-methyl-3-((1-methylazetidin-3-yl)amino)-1H-pyrazol-4-yl)-1,5-naphthyridine-2-amine] | < 1000 nM | < 1000 nM
CC(C)c1cnnc(Nc2ccc3ncc(-c4cn(C)nc4NC4CCCCC4)cc3n2)c1 [Example 0830, 7-(3-(cyclohexylamino)-1-methyl-1H-pyrazol-4-yl)-N-(5-isopropylpyridazin-3-yl)-1,5-naphthyridine-2-amine] | < 1000 nM | < 1000 nM
CC(C)c1cnnc(Nc2ccc3ncc(-c4cn(C)nc4NC4COC4)cc3n2)c1 [Example 0831] | < 1000 nM | < 1000 nM
CC(C)c1cnnc(Nc2ccc3ncc(-c4cn(C)nc4NC4CCOCC4)cc3n2)c1 [Example 0832] | < 1000 nM | < 1000 nM
CC(C)c1cnnc(Nc2ccc3ncc(-c4cn(C)nc4NCc4cnn(C)c4)cc3n2)c1 [Example 0836] | < 1000 nM | 1000 to 10000 nM
CC(C)c1cnnc(Nc2ccc3ncc(-c4cc(-c5ccccn5)nn4C)cc3n2)c1 [Example 0837, N-(5-isopropylpyridazin-3-yl)-7-(1-methyl-3-(pyridin-2-yl)-1H-pyrazol-5-yl)-1,5-naphthyridine-2-amine] | 1000 to 10000 nM | < 1000 nM
Cc1ccc(S(=O)(=O)Nc2cnc3ccc(Nc4cc(C(C)C)cnn4)nc3c2)cc1 [Example 0839, N-(6-((5-isopropylpyridazin-3-yl)amino)-1,5-naphthyridin-3-yl)-4-methylbenzene sulfonamide] | 10000 to 50000 nM | 1000 to 10000 nM
CC(C)c1cnnc(Nc2ccc3ncc(NS(C)(=O)=O)cc3n2)c1 [Example 0840, N-(6-((5-isopropylpyridazin-3-yl)amino)-1,5-naphthyridin-3-yl)methane sulfonamide] | 1000 to 10000 nM | 1000 to 10000 nM
CC(C)c1cnnc(Nc2ccc3ncc(N(C)S(C)(=O)=O)cc3n2)c1 [Example 0841, N-(6-((5-isopropylpyridazin-3-yl)amino)-1,5-naphthyridin-3-yl)-N-methylmethane sulfonamide] | 1000 to 10000 nM | 1000 to 10000 nM
CC(C)c1cnnc(Nc2ccc3ncc(N4CCN(C)CC4)cc3n2)c1 [Example 0842, N-(5-isopropylpyridazin-3-yl)-7-(4-methylpiperazin-1-yl)-1,5-naphthyridine-2-amine] | 1000 to 10000 nM | 1000 to 10000 nM
CC(C)c1cnnc(Nc2ccc3ncc(-c4cn(C)nc4-c4ccnnc4)cc3n2)c1 [Example 0843, N-(5-isopropylpyridazin-3-yl)-7-(1-methyl-3-(pyridazin-4-yl)-1H-pyrazol-4-yl)-1,5-naphthyridine-2-amine] | < 1000 nM | < 1000 nM
CC(C)c1cnnc(Nc2ccc3ncc(-c4cn(C)nc4N4CCOCC4)cc3n2)c1 [Example 0844] | < 1000 nM | < 1000 nM
CC(C)c1cnnc(Nc2ccc3ncc(N4CCCCC4)cc3n2)c1 [Example 0845, N-(5-isopropylpyridazin-3-yl)-7-(piperidin-1-yl)-1,5-naphthyridine-2-amine] | 1000 to 10000 nM | < 1000 nM
CC(C)c1cnnc(Nc2ccc3ncc(N4CCCC4)cc3n2)c1 [Example 0846, N-(5-isopropylpyridazin-3-yl)-7-(pyrrolidin-1-yl)-1,5-naphthyridine-2-amine] | 1000 to 10000 nM | < 1000 nM
CC(C)c1cnnc(Nc2ccc3ncc(N4CCC4)cc3n2)c1 [Example 0847, 7-(Azetidin-1-yl)-N-(5-isopropylpyridazin-3-yl)-1,5-naphthyridine-2-amine] | 1000 to 10000 nM | < 1000 nM
Cc1nn(C)cc1-c1cnc2ccc(Nc3cc(C(C)C)no3)nc2c1 [Example 0848, N-(7-(1,3-dimethyl-1H-pyrazol-4-yl)-1,5-naphthyridin-2-yl)-3-isopropylisoxazole-5-amine] | 1000 to 10000 nM | 1000 to 10000 nM
Cc1nc2ccc(Nc3cc(C(C)C)cnn3)nc2cc1-c1cnn(C)c1 [Example 0849, N-(5-isopropylpyridazin-3-yl)-6-methyl-7-(1-methyl-1H-pyrazol-4-yl)-1,5-naphthyridine-2-amine] | 1000 to 10000 nM | < 1000 nM
